Measurements as given in PMC8686763, “Pre-Steady-State Kinetics of the SARS-CoV-2 Main Protease as a Powerful Tool for Antiviral Drug Discovery” (Frontiers in Pharmacology, 2021).
Read-outs that look alike come from different tables or passages of the source.

Legend:
SARS-CoV-2 M^pro (WT) = SARS-CoV-2 M^pro (WT) (Severe acute respiratory syndrome coronavirus 2, UniProt P0DTD1); assay: biochemical; format: binding; conditions: for ΔTm at 50 µM: read-out: ΔTm
WT M^pro = WT M^pro (Severe acute respiratory syndrome coronavirus 2, UniProt P0DTD1); format: binding
[1] = 5 μM M^pro, 50 μM inhibitor, vs DMSO control

Compound	change of protein Tm upon binding (in words) (SARS-CoV-2 M^pro (WT))	Tm (SARS-CoV-2 M^pro (WT); 5 μM M^pro, 50 μM inhibitor, DMSO control 56.25) [°C]	ΔTm at 50 µM (SARS-CoV-2 M^pro (WT); [1]) [°C]	Tm (SARS-CoV-2 M^pro (WT)) [°C]	ΔTm at 50 µM (SARS-CoV-2 M^pro (WT)) [°C]	K 2 (= k 2/k −2) (WT M^pro)	k 2 (WT M^pro) [s⁻¹]	k -2 (WT M^pro) [s⁻¹]	k chem (WT M^pro) [s⁻¹]	k 1 (WT M^pro; 25 °C)	k -1 (WT M^pro; 25 °C) [s⁻¹]
CCC[C@H](NC(=O)[C@@H]1[C@H]2CCC[C@H]2CN1C(=O)[C@@H](NC(=O)[C@@H](NC(=O)c1cnccn1)C1CCCCC1)C(C)(C)C)C(=O)C(=O)NC1CC1 [Telaprevir]	did not result in Tm changes	56.25	0								
CC(C)(C)NC(=O)N[C@H](C(=O)N1C[C@H]2[C@@H]([C@H]1C(=O)NC(CC1CCC1)C(=O)C(N)=O)C2(C)C)C(C)(C)C (stereo partly drawn) [Boceprevir]	caused changes of protein Tm		5.75	62.00							
COc1cccc2[nH]c(C(=O)N[C@@H](CC(C)C)C(=O)N[C@@H](C[C@@H]3CCNC3=O)C(=O)CO)cc12 [PF-00835231]	caused changes of protein Tm			70.25	~14	0.37 ± 0.07	0.90 ± 0.18	2.4 ± 0.1	0.17 ± 0.07	(0.35 ± 0.09)×10^6 M^−1×s^−1	12.4 ± 0.6
